Data published in patent publication US10512637B2, “Use of inhibitor of cystine-glutamate transporter” (CHINA MEDICAL UNIVERSITY, priority 2015, dated 2019).

Experiments:
alcohol-dependent mice = assay: Free-choice two-bottle drinking after chronic alcohol exposure; assay type: in vivo, C57BL/6J mice; conditions: WT mice after chronic alcohol exposure; treatment for 7 days; sulfasalazine 15 mg/kg/day i.p., sorafenib 30 mg/kg i.p., regorafenib 30 mg/kg i.p.; compared to control vehicle (DMSO); FIG. 2B
Description: Data are means±SD (n=6-8). *P<0.0001 compared to water. ^#P<0.0001 compared to WT mice or vehicle treatment.
(§1) The concentration of alcohol was increased every fourteenth day. […] Intakes were recorded every day.

[1] = test system: TUNEL-positive cells in frontal cortex; assay: TUNEL staining of brain after chronic alcohol exposure; assay type: in vivo, C57BL/6J mice; conditions: WT mice; treatment for 14 days; sulfasalazine 15 mg/kg/day i.p., sorafenib 30 mg/kg i.p., regorafenib 30 mg/kg i.p.; compared to vehicle; FIG. 4B
Description: as §1

wild type cortical cells = assay: Annexin V apoptosis assay in primary cortical cells exposed to alcohol or cocaine; assay type: cell-based, C57BL/6J mouse; conditions: alcohol or cocaine incubation, 18 hours; sulfasalazine 500 μM, sorafenib 10 μM, regorafenib 10 μM; compared to vehicle (DMSO); FIG. 6
Description: Data are means±SD (n=3). *P<0.001 compared to vehicle group.
Primary cortical cells were prepared from cerebral cortices of wild-type C57BL/6J or xCT homozygous knockout (xCT KO) mouse embryos in embryonic day 17 as previously described in Shyu, W. C., et al., Secretoneurin promotes neuroprotection and neuronal plasticity via the Jak2/Stat3 pathway in murine models of stroke. J Clin Invest, 2008. 118(1): p. 133-48.
Annexin V staining was performed to determine cell apoptosis using the Annexin V-FITC Apoptosis Detection Kit (Sigma-Aldrich) for 10 minutes at room temperature according to the manufacturer's instructions, and then flow cytometric analysis was performed.

[2] = test system: cocaine-dependent WT mice; assay: Free-choice two-bottle drinking after chronic cocaine exposure; assay type: in vivo, C57BL/6J mice; conditions: WT mice after chronic cocaine exposure (15 mg/kg i.p., 7 days); sulfasalazine 15 mg/kg/day i.p. for 6 days during free-choice drinking; compared to vehicle

CNC(=O)c1cc(Oc2ccc(NC(=O)Nc3ccc(Cl)c(C(F)(F)F)c3)c(F)c2)ccn1 [regorafenib]
daily alcohol consumption during free-choice drinking (alcohol-dependent mice): significantly attenuated the daily alcohol consumption
chronic alcohol exposure-induced apoptosis (TUNEL-positive cells) in brain [1]: inhibited apoptosis
substance-induced apoptosis in cortical cells (wild type cortical cells): significantly inhibited substance-induced apoptosis

CNC(=O)c1cc(Oc2ccc(NC(=O)Nc3ccc(Cl)c(C(F)(F)F)c3)cc2)ccn1 [sorafenib]
daily alcohol consumption during free-choice drinking (alcohol-dependent mice): significantly attenuated the daily alcohol consumption
chronic alcohol exposure-induced apoptosis (TUNEL-positive cells) in brain [1]: inhibited apoptosis
substance-induced apoptosis in cortical cells (wild type cortical cells): significantly inhibited substance-induced apoptosis

O=C(O)c1cc(/N=N/c2ccc(S(=O)(=O)Nc3ccccn3)cc2)ccc1O [sulfasalazine]
daily alcohol consumption during free-choice drinking (alcohol-dependent mice): significantly attenuated the daily alcohol consumption
cocaine preference and craving behaviours [2]: fully inhibited cocaine preference and craving behaviours
substance-induced apoptosis in cortical cells (wild type cortical cells): significantly inhibited substance-induced apoptosis
